Source: ChEMBL document CHEMBL1909046, “DrugMatrix in vitro pharmacology data”
Where a SMILES comes first, the peptide text is derived from it. Bridges are numbered along the chain shown (N, C = ends). [ ]: non-standard residue; d: D form. The star is where a group is joined. Threoninol(2S,3R) = C[C@@H](O)[C@H](CO)N*

Tests used:
Insulin receptor = Insulin receptor (Rattus norvegicus, UniProt P15127); assay type: cell membranes, Wistar, Liver, Membrane; note: in other assays of this panel Not Active means under 50% inhibition at 10 µM
[1] = biological target: Receptor tyrosine-protein kinase erbB-2 (Homo sapiens, UniProt P04626); experiment: biochemical; assay type: cell-based, Insect cells; details: insect cells;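 note: inhibition of HER2 kinase enzyme activity, measured with Poly(Glu:Tyr) as the phosphorylation substrate; in other assays of this panel Not Active means under 50% inhibition at 10 µM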
[2] = biological target: Platelet-activating factor receptor (Homo sapiens, UniProt P25105); assay type: tissue-based; note: in other assays of this panel Not Active means under 50% inhibition at 10 µM
[3] = biological target: T1, C-X-C chemokine receptor type 2 (Homo sapiens, UniProt P25025); assay type: cell membranes, Membrane; details: cho-k1; note: in other assays of this panel Not Active means under 50% inhibition at 10 µM
T1 sequence (P25025 whole entry): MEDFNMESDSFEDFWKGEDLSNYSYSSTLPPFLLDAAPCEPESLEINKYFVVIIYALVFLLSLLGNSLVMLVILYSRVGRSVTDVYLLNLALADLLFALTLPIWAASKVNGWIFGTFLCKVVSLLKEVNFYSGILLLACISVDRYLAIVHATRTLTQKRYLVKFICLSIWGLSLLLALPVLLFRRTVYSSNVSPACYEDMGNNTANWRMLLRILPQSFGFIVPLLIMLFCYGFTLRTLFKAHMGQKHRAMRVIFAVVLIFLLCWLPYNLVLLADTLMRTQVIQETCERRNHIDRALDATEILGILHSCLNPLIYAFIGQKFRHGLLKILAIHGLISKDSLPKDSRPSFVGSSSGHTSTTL

[4] = biological target: T2, Nitric oxide synthase, inducible (Mus musculus, UniProt P29477); design: species or system Escherichia coli
T2 sequence (P29477 whole entry): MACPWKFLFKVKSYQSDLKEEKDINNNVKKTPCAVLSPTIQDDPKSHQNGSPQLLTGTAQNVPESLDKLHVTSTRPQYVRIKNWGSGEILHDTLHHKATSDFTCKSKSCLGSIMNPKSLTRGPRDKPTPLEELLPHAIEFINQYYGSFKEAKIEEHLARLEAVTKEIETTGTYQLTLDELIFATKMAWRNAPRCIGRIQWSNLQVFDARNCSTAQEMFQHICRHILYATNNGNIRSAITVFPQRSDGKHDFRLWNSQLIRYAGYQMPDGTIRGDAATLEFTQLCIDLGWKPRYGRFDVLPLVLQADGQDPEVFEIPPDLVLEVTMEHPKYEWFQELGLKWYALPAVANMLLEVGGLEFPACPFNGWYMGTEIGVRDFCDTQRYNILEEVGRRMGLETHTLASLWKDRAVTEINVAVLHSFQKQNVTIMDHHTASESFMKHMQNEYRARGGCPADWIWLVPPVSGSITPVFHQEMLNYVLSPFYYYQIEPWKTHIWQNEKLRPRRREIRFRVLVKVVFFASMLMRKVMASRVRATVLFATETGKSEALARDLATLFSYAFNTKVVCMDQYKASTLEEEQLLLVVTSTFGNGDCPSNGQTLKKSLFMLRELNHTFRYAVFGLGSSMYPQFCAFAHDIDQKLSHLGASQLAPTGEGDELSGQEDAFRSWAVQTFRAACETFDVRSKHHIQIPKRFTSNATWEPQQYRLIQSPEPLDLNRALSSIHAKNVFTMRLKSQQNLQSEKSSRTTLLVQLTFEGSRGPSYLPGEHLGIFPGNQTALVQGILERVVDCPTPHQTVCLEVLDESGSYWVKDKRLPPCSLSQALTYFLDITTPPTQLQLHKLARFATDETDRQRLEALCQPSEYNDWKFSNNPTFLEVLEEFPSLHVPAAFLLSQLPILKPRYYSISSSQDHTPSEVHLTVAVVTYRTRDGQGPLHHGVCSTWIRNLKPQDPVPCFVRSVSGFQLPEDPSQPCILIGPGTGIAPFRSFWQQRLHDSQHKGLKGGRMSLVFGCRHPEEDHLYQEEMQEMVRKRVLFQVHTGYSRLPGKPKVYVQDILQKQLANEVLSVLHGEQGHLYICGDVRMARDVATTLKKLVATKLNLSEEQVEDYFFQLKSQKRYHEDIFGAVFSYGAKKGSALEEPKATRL

[5] = biological target: Epidermal growth factor receptor (Homo sapiens, UniProt P00533); experiment: DRUGMATRIX: Protein Tyrosine Kinase, EGF Receptor enzyme inhibition (substrate: Poly(Glu:Tyr)); assay type: cell-based, Insect cells; details: insect cells; Not Active = under 50% inhibition at 10 µM
[6] = DRUGMATRIX: GABAA, Flunitrazepam, Central radioligand binding (ligand: [3H] Flunitrazepam); assay type: cell membranes, Rattus norvegicus, Wistar, Brain, Membrane; details: Not Active = under 50% inhibition at 10 µM
Estrogen receptor beta = Estrogen receptor beta (Homo sapiens, UniProt Q92731); details: sf9; note: in other assays of this panel Not Active means under 50% inhibition at 10 µM
Chain of Estrogen receptor beta (Q92731 whole entry): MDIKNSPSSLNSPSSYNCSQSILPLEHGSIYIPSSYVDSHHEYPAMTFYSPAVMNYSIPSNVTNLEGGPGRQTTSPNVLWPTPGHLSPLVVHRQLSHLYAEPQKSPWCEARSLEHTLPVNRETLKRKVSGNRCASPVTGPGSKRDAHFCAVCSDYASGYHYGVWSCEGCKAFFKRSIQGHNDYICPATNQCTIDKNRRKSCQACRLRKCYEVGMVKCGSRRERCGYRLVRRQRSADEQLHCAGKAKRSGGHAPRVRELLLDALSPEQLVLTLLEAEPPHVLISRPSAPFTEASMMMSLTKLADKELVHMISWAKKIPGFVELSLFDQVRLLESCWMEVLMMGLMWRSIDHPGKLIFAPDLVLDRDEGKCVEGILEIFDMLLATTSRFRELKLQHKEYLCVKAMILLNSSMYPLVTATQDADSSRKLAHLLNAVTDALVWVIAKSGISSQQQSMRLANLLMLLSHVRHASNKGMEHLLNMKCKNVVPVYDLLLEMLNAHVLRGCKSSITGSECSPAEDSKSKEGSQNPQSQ

Chain of Insulin receptor (P15127 27-759 limits assumed): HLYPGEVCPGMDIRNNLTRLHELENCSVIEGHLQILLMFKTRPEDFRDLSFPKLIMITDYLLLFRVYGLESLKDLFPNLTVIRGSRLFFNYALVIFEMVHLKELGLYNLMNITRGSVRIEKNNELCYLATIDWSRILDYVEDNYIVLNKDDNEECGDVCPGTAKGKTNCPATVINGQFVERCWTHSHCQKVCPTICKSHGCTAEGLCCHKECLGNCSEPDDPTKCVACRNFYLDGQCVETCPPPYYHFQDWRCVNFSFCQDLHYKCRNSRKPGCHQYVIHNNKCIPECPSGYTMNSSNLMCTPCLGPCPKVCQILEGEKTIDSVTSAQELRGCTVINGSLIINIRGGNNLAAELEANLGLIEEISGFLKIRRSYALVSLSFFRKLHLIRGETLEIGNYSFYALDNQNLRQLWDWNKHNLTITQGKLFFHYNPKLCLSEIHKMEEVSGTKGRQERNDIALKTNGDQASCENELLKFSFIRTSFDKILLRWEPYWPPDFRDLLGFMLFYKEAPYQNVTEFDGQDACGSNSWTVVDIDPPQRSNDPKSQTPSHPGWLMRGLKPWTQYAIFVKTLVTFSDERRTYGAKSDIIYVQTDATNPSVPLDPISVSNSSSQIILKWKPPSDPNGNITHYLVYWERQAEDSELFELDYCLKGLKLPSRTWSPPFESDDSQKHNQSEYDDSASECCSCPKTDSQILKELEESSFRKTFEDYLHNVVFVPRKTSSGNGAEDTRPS
Chain of Insulin receptor (P15127 764-1383 limits assumed): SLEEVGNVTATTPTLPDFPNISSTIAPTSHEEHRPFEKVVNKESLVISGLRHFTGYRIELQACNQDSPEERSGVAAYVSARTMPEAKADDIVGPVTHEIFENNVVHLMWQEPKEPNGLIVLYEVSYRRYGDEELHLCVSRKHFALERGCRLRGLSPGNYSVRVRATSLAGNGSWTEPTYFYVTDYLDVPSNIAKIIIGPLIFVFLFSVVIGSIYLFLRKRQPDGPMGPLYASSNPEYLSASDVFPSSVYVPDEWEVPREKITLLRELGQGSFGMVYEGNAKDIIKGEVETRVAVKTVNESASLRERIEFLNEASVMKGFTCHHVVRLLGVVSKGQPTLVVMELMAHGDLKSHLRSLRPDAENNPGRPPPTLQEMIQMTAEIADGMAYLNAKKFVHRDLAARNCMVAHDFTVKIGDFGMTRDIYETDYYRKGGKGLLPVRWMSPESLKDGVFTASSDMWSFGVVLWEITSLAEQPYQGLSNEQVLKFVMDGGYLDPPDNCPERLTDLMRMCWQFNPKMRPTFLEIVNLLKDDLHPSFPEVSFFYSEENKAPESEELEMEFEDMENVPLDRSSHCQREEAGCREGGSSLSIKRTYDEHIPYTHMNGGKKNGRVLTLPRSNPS
Chain of Epidermal growth factor receptor (P00533 whole entry): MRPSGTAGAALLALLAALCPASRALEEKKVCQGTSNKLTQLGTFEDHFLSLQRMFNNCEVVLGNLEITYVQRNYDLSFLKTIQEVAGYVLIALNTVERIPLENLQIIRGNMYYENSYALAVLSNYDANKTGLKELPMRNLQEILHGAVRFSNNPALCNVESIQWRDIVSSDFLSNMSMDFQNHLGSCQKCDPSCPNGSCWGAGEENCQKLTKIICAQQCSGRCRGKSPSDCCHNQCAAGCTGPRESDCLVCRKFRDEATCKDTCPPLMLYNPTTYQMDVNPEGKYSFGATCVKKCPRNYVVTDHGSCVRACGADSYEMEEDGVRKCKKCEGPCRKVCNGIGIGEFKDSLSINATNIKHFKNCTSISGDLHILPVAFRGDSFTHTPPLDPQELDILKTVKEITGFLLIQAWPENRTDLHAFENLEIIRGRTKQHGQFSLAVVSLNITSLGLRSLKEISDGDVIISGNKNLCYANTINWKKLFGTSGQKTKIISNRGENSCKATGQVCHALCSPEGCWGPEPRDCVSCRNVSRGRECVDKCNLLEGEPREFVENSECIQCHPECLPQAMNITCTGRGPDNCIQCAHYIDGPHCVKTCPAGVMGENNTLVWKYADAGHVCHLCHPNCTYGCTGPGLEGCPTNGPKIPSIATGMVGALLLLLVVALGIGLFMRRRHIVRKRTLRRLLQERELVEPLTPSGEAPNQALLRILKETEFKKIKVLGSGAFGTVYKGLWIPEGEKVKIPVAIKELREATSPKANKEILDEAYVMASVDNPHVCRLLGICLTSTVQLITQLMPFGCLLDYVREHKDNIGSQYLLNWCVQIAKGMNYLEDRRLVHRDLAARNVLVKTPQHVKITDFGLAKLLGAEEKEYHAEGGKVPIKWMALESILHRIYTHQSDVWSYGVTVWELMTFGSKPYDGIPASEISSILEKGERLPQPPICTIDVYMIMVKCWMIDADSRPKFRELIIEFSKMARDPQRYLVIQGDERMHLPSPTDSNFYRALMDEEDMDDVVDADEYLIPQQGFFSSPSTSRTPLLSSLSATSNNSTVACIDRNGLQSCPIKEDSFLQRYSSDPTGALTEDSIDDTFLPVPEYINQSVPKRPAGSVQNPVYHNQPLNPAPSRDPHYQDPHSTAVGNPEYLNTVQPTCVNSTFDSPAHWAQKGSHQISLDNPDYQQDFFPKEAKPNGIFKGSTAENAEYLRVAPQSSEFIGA
Chain of Platelet-activating factor receptor (P25105 whole entry): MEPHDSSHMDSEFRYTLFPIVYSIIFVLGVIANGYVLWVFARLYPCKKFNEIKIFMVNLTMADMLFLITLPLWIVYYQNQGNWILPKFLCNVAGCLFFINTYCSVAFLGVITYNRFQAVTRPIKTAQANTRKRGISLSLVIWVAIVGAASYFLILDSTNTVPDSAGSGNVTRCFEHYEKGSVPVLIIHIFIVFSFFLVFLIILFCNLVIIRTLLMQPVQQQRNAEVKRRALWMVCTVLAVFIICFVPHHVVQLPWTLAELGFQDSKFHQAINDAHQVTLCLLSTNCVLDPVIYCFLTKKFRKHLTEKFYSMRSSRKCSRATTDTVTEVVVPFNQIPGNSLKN
Chain of Receptor tyrosine-protein kinase erbB-2 (P04626 whole entry): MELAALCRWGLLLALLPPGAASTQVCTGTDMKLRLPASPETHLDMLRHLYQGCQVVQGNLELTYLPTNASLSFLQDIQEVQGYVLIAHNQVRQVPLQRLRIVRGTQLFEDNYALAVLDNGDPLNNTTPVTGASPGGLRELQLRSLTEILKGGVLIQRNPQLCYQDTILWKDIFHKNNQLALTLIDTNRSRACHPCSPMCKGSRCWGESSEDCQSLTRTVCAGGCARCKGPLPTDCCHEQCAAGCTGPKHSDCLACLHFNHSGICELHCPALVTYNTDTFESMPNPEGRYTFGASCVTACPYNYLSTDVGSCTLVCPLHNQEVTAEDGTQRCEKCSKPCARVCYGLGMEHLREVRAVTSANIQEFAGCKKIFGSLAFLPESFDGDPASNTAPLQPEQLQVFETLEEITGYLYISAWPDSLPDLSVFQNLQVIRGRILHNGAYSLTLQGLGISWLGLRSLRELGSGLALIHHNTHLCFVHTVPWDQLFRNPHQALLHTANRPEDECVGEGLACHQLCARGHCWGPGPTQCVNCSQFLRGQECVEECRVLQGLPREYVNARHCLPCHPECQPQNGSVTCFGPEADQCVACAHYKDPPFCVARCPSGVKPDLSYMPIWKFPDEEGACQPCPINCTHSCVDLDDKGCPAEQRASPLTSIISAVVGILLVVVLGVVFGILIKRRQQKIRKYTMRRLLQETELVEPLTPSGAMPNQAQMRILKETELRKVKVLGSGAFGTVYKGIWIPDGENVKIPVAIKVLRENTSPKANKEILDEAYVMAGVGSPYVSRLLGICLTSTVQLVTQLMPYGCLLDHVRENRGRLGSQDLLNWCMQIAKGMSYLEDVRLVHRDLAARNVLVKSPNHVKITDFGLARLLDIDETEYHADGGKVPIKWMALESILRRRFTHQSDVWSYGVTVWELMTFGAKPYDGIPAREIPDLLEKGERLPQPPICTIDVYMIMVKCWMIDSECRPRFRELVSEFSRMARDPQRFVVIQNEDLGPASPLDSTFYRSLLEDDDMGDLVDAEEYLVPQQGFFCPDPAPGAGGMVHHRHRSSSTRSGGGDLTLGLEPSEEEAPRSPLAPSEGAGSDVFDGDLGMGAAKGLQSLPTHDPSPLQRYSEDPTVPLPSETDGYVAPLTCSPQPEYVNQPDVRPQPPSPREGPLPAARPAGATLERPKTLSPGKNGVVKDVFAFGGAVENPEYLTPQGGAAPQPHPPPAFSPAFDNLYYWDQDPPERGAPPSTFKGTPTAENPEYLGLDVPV

COc1ccccc1C(=O)N1CCC(Cc2ccccc2)CC1
Not Active: IC50 (Insulin receptor) | IC50 [1] | IC50 [2] | IC50 [3] | IC50 [4] | IC50 [5] | IC50 [6] | Ki [6] | IC50 (Estrogen receptor beta)

Cc1ccccc1C(=O)N1CCC(Cc2ccccc2)CC1
Not Active: IC50 (Insulin receptor) | IC50 [1] | IC50 [2] | IC50 [3] | IC50 [4] | IC50 [5] | IC50 [6] | Ki [6] | IC50 (Estrogen receptor beta)

O=C1CC[C@H](N2C(=O)c3ccccc3C2=O)C(=O)N1
Not Active: IC50 (Insulin receptor) | IC50 [1] | IC50 [2] | IC50 [3] | IC50 [4] | IC50 [5] | IC50 [6] | Ki [6] | IC50 (Estrogen receptor beta)

N=C(Nc1ccccc1)Nc1ccccc1
Not Active: IC50 (Insulin receptor) | IC50 [1] | IC50 [2] | IC50 [3] | IC50 [4] | IC50 [5] | IC50 [6] | Ki [6] | IC50 (Estrogen receptor beta)

C[C@@H](O)[C@H](CO)NC(=O)[C@@H]1CSSC[C@H](NC(=O)[C@H](N)Cc2ccccc2)C(=O)N[C@@H](Cc2ccccc2)C(=O)N[C@H](Cc2c[nH]c3ccccc23)C(=O)N[C@@H](CCCCN)C(=O)N[C@@H]([C@@H](C)O)C(=O)N1 (H-[dF]CF[dW]KTC-{Threoninol(2S,3R)}; disulfide 2-7)
Not Active: IC50 (Insulin receptor) | IC50 [1] | IC50 [2] | IC50 [3] | IC50 [4] | IC50 [5] | IC50 [6] | Ki [6] | IC50 (Estrogen receptor beta)

S=C=Nc1cccc2ccccc12 [1-NAPHTHYLISOTHIOCYANATE]
Not Active: IC50 (Insulin receptor) | IC50 [1] | IC50 [2] | IC50 [3] | IC50 [4] | IC50 [5] | IC50 [6] | Ki [6] | IC50 (Estrogen receptor beta)

C[C@](O)(CS(=O)(=O)c1ccc(F)cc1)C(=O)Nc1ccc(C#N)c(C(F)(F)F)c1 [(R)-BICALUTAMIDE]
Not Active: IC50 (Insulin receptor) | IC50 [1] | IC50 [2] | IC50 [3] | IC50 [4] | IC50 [5] | IC50 [6] | Ki [6] | IC50 (Estrogen receptor beta)

CCCC(=O)Nc1ccc(OCC(O)CNC(C)C)c(C(C)=O)c1 (centres undefined) [ACEBUTOLOL]
Not Active: IC50 (Insulin receptor) | IC50 [1] | IC50 [2] | IC50 [3] | IC50 [4] | IC50 [5] | IC50 [6] | Ki [6] | IC50 (Estrogen receptor beta)

CC(=O)Nc1ccc(O)cc1 [ACETAMINOPHEN]
Not Active: IC50 (Insulin receptor) | IC50 [1] | IC50 [2] | IC50 [3] | IC50 [4] | IC50 [5] | IC50 [6] | Ki [6] | IC50 (Estrogen receptor beta)

COc1cc2c(c3oc(=O)c4c(c13)CCC4=O)[C@@H]1C=CO[C@@H]1O2 [AFLATOXIN]
Not Active: IC50 (Insulin receptor) | Ki (Insulin receptor) | IC50 [1] | Ki [1] | IC50 [2] | Ki [2] | IC50 [3] | Ki [3] | IC50 [4] | Ki [4] | IC50 [5] | Ki [5] | IC50 [6] | Ki [6] | IC50 (Estrogen receptor beta) | Ki (Estrogen receptor beta)

N=C(N)NC(=O)c1nc(Cl)c(N)nc1N [AMILORIDE]
Not Active: IC50 (Insulin receptor) | IC50 [1] | IC50 [2] | IC50 [3] | IC50 [4] | IC50 [5] | IC50 [6] | Ki [6] | IC50 (Estrogen receptor beta)

Cc1cc(=O)n(-c2ccccc2)n1C [ANTIPYRINE]
Not Active: IC50 (Insulin receptor) | IC50 [1] | IC50 [2] | IC50 [3] | IC50 [4] | IC50 [5] | IC50 [6] | Ki [6] | IC50 (Estrogen receptor beta)

CCOC(=O)[C@H](CCc1ccccc1)N[C@H]1CCc2ccccc2N(CC(=O)O)C1=O [BENAZEPRIL]
Not Active: IC50 (Insulin receptor) | IC50 [1] | IC50 [2] | IC50 [3] | IC50 [4] | IC50 [5] | IC50 [6] | Ki [6] | IC50 (Estrogen receptor beta)

Nc1c(CC(=O)O)cccc1C(=O)c1ccc(Br)cc1 [BROMFENAC]
Not Active: IC50 (Insulin receptor) | IC50 [1] | IC50 [2] | IC50 [3] | IC50 [4] | IC50 [5] | IC50 [6] | Ki [6] | IC50 (Estrogen receptor beta)

CCCCN1CCCCC1C(=O)Nc1c(C)cccc1C.Cl (centres undefined) [BUPIVACAINE HYDROCHLORIDE]
Not Active: IC50 (Insulin receptor) | IC50 [1] | IC50 [2] | IC50 [3] | IC50 [4] | IC50 [5] | IC50 [6] | Ki [6] | IC50 (Estrogen receptor beta)

O=NN(CCCl)C(=O)NCCCl [CARMUSTINE]
Not Active: IC50 (Insulin receptor) | IC50 [1] | IC50 [2] | IC50 [3] | IC50 [4] | IC50 [5] | IC50 [6] | Ki [6] | IC50 (Estrogen receptor beta)

CC1=C(C(=O)O)N2C(=O)[C@@H](NC(=O)[C@H](N)c3ccccc3)[C@H]2SC1 [CEPHALEXIN ANHYDROUS]
Not Active: IC50 (Insulin receptor) | IC50 [1] | IC50 [2] | IC50 [3] | IC50 [4] | IC50 [5] | IC50 [6] | Ki [6] | IC50 (Estrogen receptor beta)

O=C(N[C@H](CO)[C@H](O)c1ccc([N+](=O)[O-])cc1)C(Cl)Cl [CHLORAMPHENICOL]
Not Active: IC50 (Insulin receptor) | IC50 [1] | IC50 [2] | IC50 [3] | IC50 [4] | IC50 [5] | IC50 [6] | Ki [6] | IC50 (Estrogen receptor beta)

ClC(Cl)Cl [CHLOROFORM]
Not Active: IC50 (Insulin receptor) | IC50 [1] | IC50 [2] | IC50 [3] | IC50 [4] | IC50 [5] | IC50 [6] | Ki [6] | IC50 (Estrogen receptor beta)

C=C1CC[C@H](O)C/C1=C/C=C1\CCC[C@]2(C)[C@@H]([C@H](C)CCCC(C)C)CC[C@@H]12 [CHOLECALCIFEROL]
Not Active: IC50 (Insulin receptor) | IC50 [1] | IC50 [2] | IC50 [3] | IC50 [4] | IC50 [5] | IC50 [6] | Ki [6] | IC50 (Estrogen receptor beta)

CCOC(=O)C(C)(C)Oc1ccc(Cl)cc1 [CLOFIBRATE]
Not Active: IC50 (Insulin receptor) | IC50 [1] | IC50 [2] | IC50 [3] | IC50 [4] | IC50 [5] | IC50 [6] | Ki [6] | IC50 (Estrogen receptor beta)

CC(=O)OCC(=O)[C@@]1(O)CC[C@H]2[C@@H]3CCC4=CC(=O)CC[C@]4(C)[C@H]3C(=O)C[C@@]21C [CORTISONE ACETATE]
Not Active: IC50 (Insulin receptor) | IC50 [1] | IC50 [2] | IC50 [3] | IC50 [4] | IC50 [5] | IC50 [6] | Ki [6] | IC50 (Estrogen receptor beta)

O=c1ccc2ccccc2o1 [COUMARIN]
Not Active: IC50 (Insulin receptor) | IC50 [1] | IC50 [2] | IC50 [3] | IC50 [4] | IC50 [5] | IC50 [6] | Ki [6] | IC50 (Estrogen receptor beta)
